# Measurements: patent US11447479B2, “Compounds active towards nuclear receptors” (NUEVOLUTION A/S, priority 2019, dated 2022)
# Target: T1, RORγ (Homo sapiens, UniProt P51449)
# T1 construct: Gal4 (galactose-responsive transcription factor); expressed in transfected cells; host or cells: HEK293
# T1 sequence (P51449 269-508 limits assumed): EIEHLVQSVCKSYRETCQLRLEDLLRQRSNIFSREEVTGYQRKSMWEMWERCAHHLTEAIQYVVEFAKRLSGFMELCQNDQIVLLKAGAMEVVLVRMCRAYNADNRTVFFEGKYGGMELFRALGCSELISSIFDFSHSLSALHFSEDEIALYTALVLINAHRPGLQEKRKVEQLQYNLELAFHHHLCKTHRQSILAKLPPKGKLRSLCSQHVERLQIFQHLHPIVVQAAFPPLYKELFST
# Assay: RORγ Reporter Assay (Gal4)
# Assay type: cell-based
# Settings: HEK293 co-transfected with RORγ LBD-Gal4 and luciferase reporter, 24 h incubation, absolute IC50; read-out: IC50
# Protocol: RORγ Reporter Assay (Gal4)
# The HEK293 cell line is co-transfected transiently with two plasmids, one with the RORγ ligand-binding domain fused to galactose-responsive transcription factor (Gal4), and the other with the luciferase reporter gene and Gal binding sites (UAS). This construction allows to determine the RORγ activity in a cellular system through the measurement of luminescence.
# A suspension of RORγ reporter cells was dispensed into plates and cultured 2 h at 37° C. and 5% CO2. Media formulation consisted in DMEM/F-12 medium (Gibco) supplemented with 10% heat inactivated FBS (Sigma-Aldrich), non-essential aminoacids (Sigma-Aldrich), 2 mM Glutamax (Gibco) and 100 U/mF penicillin (Sigma-Aldrich). Dose-response curves with compounds were prepared in 100% DMSO and further diluted […] in culture medium. Compound solutions were added to the plate containing cells (final DMSO concentration of 0.1%) and incubated for 24 h at 37° C. and 5% CO2. Luciferase detection reagent was added to each well, and relative light units […] were quantified from each assay well using a plate reading luminometer.
# Values of average RFU±S.D. were computed for all treatment sets, followed by the calculations of percent-reduction of RORγ activity in response to respective test compound. The following formula was used: activity=100*[1−[x test compound/average vehicle]where the theoretical minimum reduction (0% reduction).
row,IC50,SMILES
1,330 nM,"NC(=O)CN1CCC(CNc2ncnc(N3CCOC[C@@H]3c3ccc(C(F)(F)F)cn3)c2F)CC1 [Example H6-2, (S)-2-(4-(((5-fluoro-6-(3-(5-(trifluoromethyl)pyridin-2-yl)morpholino)pyrimidin-4-yl)amino)methyl)piperidin-1-yl)acetamide]"
2,46 nM,"NC(=O)CN1CCC(CNc2ncnc(N3CC(F)(F)C[C@@H]3c3ccc(C(F)(F)F)cn3)c2F)C(F)(F)C1 (single isomer, unassigned) [Example H6-19-2, 2-((R*)-4-(((6-((R)-4,4-difluoro-2-(5-(trifluoromethyl)pyridin-2-yl)pyrrolidin-1-yl)-5-fluoropyrimidin-4-yl)amino)methyl)-3,3-difluoropiperidin-1-yl)acetamide]"
3,66 nM,"NC(=O)CN1CCC(CNc2ncnc(N3CCC[C@@H]3c3ccc(C(F)(F)F)cc3)c2F)CC1 [Example H6-25-1, (R)-2-(4-(((5-fluoro-6-(2-(4-(trifluoromethyl)phenyl)pyrrolidin-1-yl)pyrimidin-4-yl)amino)methyl)piperidin-1-yl)acetamide]"
4,910 nM,"NC(=O)CN1CC[C@H](CNc2ncnc(N3CCOC[C@@H]3c3ccc(C(F)(F)F)cn3)c2F)[C@H](F)C1 (single isomer, unassigned) [Example H6-12-2, 2-((3R*,4S*)-3-fluoro-4-(((5-fluoro-6-((S)-3-(5-(trifluoromethyl)pyridin-2-yl)morpholino)pyrimidin-4-yl)amino)methyl)piperidin-1-yl)acetamide]"
5,35 nM,"NC(=O)CN1CC[C@@H](CNc2ncnc(N3CCOC[C@@H]3c3ccc(C(F)(F)F)cc3)c2F)[C@H](O)C1 (single isomer, unassigned) [Example H6-7-2, 2-((3R*,4R*)-4-(((5-fluoro-6-((S)-3-(4-(trifluoromethyl)phenyl)morpholino)pyrimidin-4-yl)amino)methyl)-3-hydroxypiperidin-1-yl)acetamide]"
6,210 nM,"NC(=O)CN1CCC(CNc2ncnc(N3C[C@H](F)C[C@@H]3c3ccc(C(F)(F)F)cc3)c2F)CC1 (racemic) [Example H6-27, rac-2-(4-(((5-fluoro-6-((2R,4R)-4-fluoro-2-(4-(trifluoromethyl)phenyl)pyrrolidin-1-yl)pyrimidin-4-yl)amino)methyl)piperidin-1-yl)acetamide]"
7,120 nM,"C[C@@H]1COC[C@H](c2cccc(C(F)(F)F)c2)N1c1ncnc(NC[C@@H]2CCN(CC(N)=O)C[C@H]2O)c1F (single isomer, unassigned) [Example H6-21-4]"
8,550 nM,"NC(=O)CN1CC[C@H](CNc2ncnc(N3CCOC[C@@H]3c3ccc(C(F)(F)F)cn3)c2F)[C@H](F)C1 (single isomer, unassigned) [Example H6-12-1, 2-((3R*,4S*)-3-fluoro-4-(((5-fluoro-6-((S)-3-(5-(trifluoromethyl)pyridin-2-yl)morpholino)pyrimidin-4-yl)amino)methyl)piperidin-1-yl)acetamide]"
9,18 nM,"NC(=O)CN1CCC(CNc2ncnc(N3CCOC[C@@H]3c3ccc(C(F)(F)F)cc3)c2F)C(F)(F)C1 (single isomer, unassigned) [Example H6-9-2, 2-((R*)-3,3-difluoro-4-(((5-fluoro-6-((S)-3-(4-(trifluoromethyl)phenyl)morpholino)pyrimidin-4-yl)amino)methyl)piperidin-1-yl)acetamide]"
10,14 nM,"NC(=O)CN1CC[C@H](CNc2ncnc(N3CC(F)(F)C[C@@H]3c3ccc(C(F)(F)F)cc3)c2F)[C@@H](F)C1 (single isomer, unassigned) [Example H6-16-1, 2-((3R*,4R*)-4-(((6-((R)-4,4-difluoro-2-(4-(trifluoromethyl)phenyl)pyrrolidin-1-yl)-5-fluoropyrimidin-4-yl)amino)methyl)-3-fluoropiperidin-1-yl)acetamide]"
11,60 nM,"NC(=O)CN1CC[C@H](CNc2ncnc(N3CC(F)(F)C[C@@H]3c3ccc(C(F)(F)F)cn3)c2F)[C@@H](F)C1 (single isomer, unassigned) [Example H6-18-2, 2-((3R*,4R*)-4-(((6-((R)-4,4-difluoro-2-(5-(trifluoromethyl)pyridin-2-yl)pyrrolidin-1-yl)-5-fluoropyrimidin-4-yl)amino)methyl)-3-fluoropiperidin-1-yl)acetamide]"
12,280 nM,"CC(C)(C(N)=O)N1CCC(CNc2ncnc(N3CCOC[C@@H]3c3ccc(C(F)(F)F)cn3)c2F)CC1 [Example H6-3, (S)-2-(4-(((5-fluoro-6-(3-(5-(trifluoromethyl)pyridin-2-yl)morpholino)pyrimidin-4-yl)amino)methyl)piperidin-1-yl)-2-methylpropanamide]"
13,10 nM,"NC(=O)CN1CC[C@H](CNc2ncnc(N3CC(F)(F)C[C@@H]3c3ccc(C(F)(F)F)cc3)c2F)[C@@H](O)C1 (mixture of isomers) [Example H6-17, 2-((3RS,4RS)-4-(((6-((R)-4,4-difluoro-2-(4-(trifluoromethyl)phenyl)pyrrolidin-1-yl)-5-fluoropyrimidin-4-yl)amino)methyl)-3-hydroxypiperidin-1-yl)acetamide]"
14,13 nM,"NC(=O)CN1CC[C@H](CNc2ncnc(N3CCOC[C@@H]3c3ccc(C(F)(F)F)cc3)c2F)[C@@H](F)C1 (single isomer, unassigned) [Example H6-10-2, 2-((3R*,4R*)-3-fluoro-4-(((5-fluoro-6-((S)-3-(4-(trifluoromethyl)phenyl)morpholino)pyrimidin-4-yl)amino)methyl)piperidin-1-yl)acetamide]"
15,88 nM,"NC(=O)CN1CCC(CNc2ncnc(N3CCCC3c3ccc(C(F)(F)F)cc3)c2F)CC1 (centres unmarked) [Example H6-25, 2-(4-(((5-fluoro-6-(2-(4-(trifluoromethyl)phenyl)pyrrolidin-1-yl)pyrimidin-4-yl)amino)methyl)piperidin-1-yl)acetamide]"
16,160 nM,"NC(=O)CN1CCC(F)(CNc2ncnc(N3CCOC[C@@H]3c3ccc(C(F)(F)F)cn3)c2F)CC1 [Example H6-8, (S)-2-(4-fluoro-4-(((5-fluoro-6-(3-(5-(trifluoromethyl)pyridin-2-yl)morpholino)pyrimidin-4-yl)amino)methyl)piperidin-1-yl)acetamide]"
17,9 nM,"NC(=O)CN1CCC(CNc2ncnc(N3CC(F)(F)C[C@@H]3c3ccc(C(F)(F)F)cc3)c2F)C(F)(F)C1 (single isomer, unassigned) [Example H6-15-1, 2-((R*)-4-(((6-((R)-4,4-difluoro-2-(4-(trifluoromethyl)phenyl)pyrrolidin-1-yl)-5-fluoropyrimidin-4-yl)amino)methyl)-3,3-difluoropiperidin-1-yl)acetamide]"
18,140 nM,"NC(=O)CN1CCC(CNc2ncnc(N3CC(F)(F)CC3c3ccc(C(F)(F)F)cc3)c2F)CC1 (centres unmarked) [Example H6-24, 2-(4-(((6-(4,4-difluoro-2-(4-(trifluoromethyl)phenyl)pyrrolidin-1-yl)-5-fluoropyrimidin-4-yl)amino)methyl)piperidin-1-yl)acetamide]"
19,86 nM,"C[C@@H]1COC[C@H](c2cccc(C(F)(F)F)c2)N1c1ncnc(NC[C@@H]2CCN(CC(N)=O)C[C@H]2O)c1F (single isomer, unassigned) [Example H6-21-3]"
20,60 nM,"C[C@@H]1COC[C@H](c2ccc(C(F)(F)F)cc2)N1c1ncnc(NC[C@@H]2CCN(CC(N)=O)C[C@H]2O)c1F (single isomer, unassigned) [Example H6-22-2]"
21,20 nM,"NC(=O)CN1CC[C@H](CNc2ncnc(N3CCOC[C@@H]3c3ccc(C(F)(F)F)cc3)c2F)[C@@H](O)C1 (single isomer, unassigned) [Example H6-7-1, 2-((3R*,4R*)-4-(((5-fluoro-6-((S)-3-(4-(trifluoromethyl)phenyl)morpholino)pyrimidin-4-yl)amino)methyl)-3-hydroxypiperidin-1-yl)acetamide]"
22,51 nM,"NC(=O)CN1CCC(F)(CNc2ncnc(N3CCOC[C@@H]3c3ccc(OC(F)(F)F)cc3)c2F)CC1 [Example H6-6, (S)-2-(4-fluoro-4-(((5-fluoro-6-(3-(4-(trifluoromethoxy)phenyl)morpholino)pyrimidin-4-yl)amino)methyl)piperidin-1-yl)acetamide]"
23,440 nM,"NC(=O)CN1CCC(CNc2ncnc(N3CCCC3c3ccc(C(F)(F)F)cc3O)c2F)CC1 (centres unmarked) [Example H6-26, 2-(4-(((5-fluoro-6-(2-(2-hydroxy-4-(trifluoromethyl)phenyl)pyrrolidin-1-yl)pyrimidin-4-yl)amino)methyl)piperidin-1-yl)acetamide]"

# Same assay, conditions: comparison compounds from WO2016020295, Tables 5 and 6; read-out: Gal4 assay IC50
row,IC50,SMILES
1,< 100 nM,"NC(=O)Cc1ccc(CNc2ncnc(N3CCOC[C@@H]3c3ccc(OC(F)(F)F)cc3)c2F)cc1 [Example 230, reference compound]"
2,< 500 nM,"NC(=O)Cc1ccc(CNc2ncnc(N3CCOC[C@@H]3c3ccc(C(F)(F)F)cc3)c2F)cc1 [Example 204, reference compound]"
3,< 500 nM,"NC(=O)CC1CCC(CNc2ncnc(N3CCOC[C@@H]3c3ccc(OC(F)(F)F)cc3)c2F)CC1 (some centres unmarked) [Example 245, reference compound]"
